Legend:
SW480sub cells = test: Transwell matrigel invasion assay with peptide-treated SW480sub cells; assay type: cell-based, human; conditions: for invasion reduced compared to vehicle control: peptide 50 μM; for colorectal cancer cell invasion reduced by / inhibitory effects on invasion: peptide 100 μg/ml, 48 hours
Method: SW480sub was subpopulation of SW480 having high in vitro invasion and in vivo metastasis ability. The effect of each peptide on colorectal cancer cell invasion was analyzed using the said SW480sub. SW480sub cells were mixed with each peptide, followed by pre-incubation for 30 minutes.
(§1) Particularly, the porous membrane of 24-well transwell plate (8 μm pore size; Costar, USA) was coated with 100 μl of matrigel (BD Biosciences, USA) diluted in serum free medium at the concentration of […], which stood at room temperature for 1 hour for fixing. The lower part of the transwell plate was coated with 100 μl of collagen type I (Sigma) at the concentration of […]. The said collagen type I was used as a chemoattractant. 1×10^4 cells resuspended in serum free medium were distributed in the upper chamber of the said 24-well transwell plate, followed by culture at 37° C. with 5% CO2 for 48 hours, during which the cells were induced to migrate from the upper chamber to the lower chamber. The non-migrated cells were eliminated from the surface of the upper chamber. […] The excessive crystal violet solution was washed off with distilled water. The selected area (×100) was photographed. The number of the cells migrated was counted from 5 different selected areas. Then, mean value and standard error were obtained.

SW480 cells [1] = test: Transwell invasion assay with peptide-treated SW480 cells; assay type: cell-based, human; conditions: for invasion of cells reduced by: FIGS. 18 and 19, concentration not given; for invasion of colorectal cancer cells compared to the control: 50 μM, control DMSO 0.25%
Method: as §1
SW480 colorectal cancer cells were treated with peptides originated from C12orf59, and effects of the peptids on invasion of the cells were analyzed.

colorectal cancer cells = test: Cellular survival rate of colorectal cancer cells by absorbance (Experimental Example 4); assay type: cell-based; conditions: as in Example <3-2>
Method: (§2) Particularly, 100 μl of poly-HEMA (Sigma) at the concentration of 12 mg/ml was loaded in 96-well plate, which stood in clean bench for 1 day, followed by drying. On the next day, the plate was coated with Poly-HEMA once again. Cells were distributed in the poly-HEMA coated plate by 100 μl/well (1×10^4 cells/well). At that time, serum-free medium was used. 6 days later, 10 μl of CCK-8 reagent (Dojindo cat. CK04-13) was added to each well, followed by reaction for 3 hours. Then, OD450 was measured.
In particular, a cellular survival rate was measured using absorbance in the same manner as in Example <3-2>.

SW480 cells [2] = test: Cell survivability under anchorage independent condition (polyHEMA, CCK-8, OD450) with peptides; assay type: cell-based, human; conditions: 6 days, serum-free
Method: 6 days later, cell survivability was measured by colorimetric technique under the anchorage independent condition.
as §2

[3] = tested on: C8161 (human melanoma) cell line; test: Transwell invasion assay with C8161 cells in the presence of the peptide; assay type: cell-based; conditions: 24 h
Method: Specifically, C8161 (human melanoma) cell line was cultured in DMEM containing 10% FBS, penicillin-streptomycin, L-glutamine, sodium pyruvate and glucose. C8161 cells (1×10^4) in the presence of the peptide were plated in serum-free medium on 24-well Transwell inserts (8 μm pore size; Costar, USA) coated with 25 μg of […] (BD Biosciences, USA). The underside of the insert was coated with 100 μl of collagen type I (Sigma) at the concentration of 5 μg/ml. […] The number of cells that had invaded was counted in five representative fields per insert. Then, mean value and standard deviation were obtained.

EENCGNPEHCLT (A_C-term1)
invasion reduced compared to vehicle control (SW480sub cells): 48% | colorectal cancer cell invasion reduced by / inhibitory effects on invasion (SW480sub cells): about 92% | invasion of cells reduced by (SW480 cells [1]): 48% | survival of colorectal cancer cells (colorectal cancer cells): inhibitory effects on the survival of colorectal cancer cells in a concentration-dependent manner

PCCISS (B_Cen2)
invasion of colorectal cancer cells compared to the control (SW480 cells [1]): superior inhibitory effects

EENCGNPEHCLTTDWVH (A_intact) [17 amino acid peptide from the extracellular domain of C12orf59 isoform 1]
invasion reduced compared to vehicle control (SW480sub cells): 40% | cell survivability reduced by (SW480 cells [2]): 82% | C8161 invasion reduced by ([3]; 30 μg/ml): 10% | C8161 invasion reduced by ([3]; 100 μg/ml): 45%

SWRPQPCCIS (B_C-term2)
invasion reduced compared to vehicle control (SW480sub cells): 50% | invasion of colorectal cancer cells compared to the control (SW480 cells [1]): inhibited the invasion | invasion of cells reduced by (SW480 cells [1]): 39%

CLTTDWVH (A/B common)
invasion of colorectal cancer cells compared to the control (SW480 cells [1]): effects similar to those of A_C-term2 and B_C-term2

SWRPQPCCISSCCLT (B_C-term1)
survival of colorectal cancer cells (colorectal cancer cells): inhibitory effects on the survival of colorectal cancer cells in a concentration-dependent manner

NPEHCLTTDWVH (A_N-term)
invasion of cells reduced by (SW480 cells [1]): 39% | survival of colorectal cancer cells (colorectal cancer cells): inhibitory effects on the survival of colorectal cancer cells in a concentration-dependent manner

NPEHCLT (A_Cen)
invasion of cells reduced by (SW480 cells [1]): 49%

PCCISSCCLTTDWVH (B_N-term)
survival of colorectal cancer cells (colorectal cancer cells): inhibitory effects on the survival of colorectal cancer cells in a concentration-dependent manner

EENCGNP (A_C-term2)
invasion reduced compared to vehicle control (SW480sub cells): 46% | colorectal cancer cell invasion reduced by / inhibitory effects on invasion (SW480sub cells): about 99% | invasion of colorectal cancer cells compared to the control (SW480 cells [1]): inhibited the invasion | invasion of cells reduced by (SW480 cells [1]): 38%
